Results: the supplement of paper PMC10307832

What was measured:
Test in all cases: relative viability (nuclei count vs DMSO), 5 days (fraction); higher = more cells survive
[1] = compound: CN(C)C[C@@H]1CCn2cc(c3ccccc32)C2=C(C(=O)NC2=O)c2cn(c3ccccc23)CCO1 [Ruboxistaurin] + Cc1cc(Nc2cc(N3CCN(C)CC3)nc(Sc3ccc(NC(=O)C4CC4)cc3)n2)n[nH]1 [Tozasertib] (partner 0.1 µM)
Method in brief: (§1)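 Lung cancer cell lines in 1536-well plates got either a single drug or a fixed anchor-drug dose together with five library-drug doses (not always all listed) in √10 steps, by pin tool, on the day after seeding. Nuclei were counted after 5 days, and relative viability is the treated-to-vehicle ratio of nuclei counts. Values are medians of duplicate plates.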

[2] = compound: CN(C)C[C@@H]1CCn2cc(c3ccccc32)C2=C(C(=O)NC2=O)c2cn(c3ccccc23)CCO1 [Ruboxistaurin] + CC1(C)CCC(c2ccc(Cl)cc2)=C(CN2CCN(c3ccc(C(=O)NS(=O)(=O)c4ccc(N[C@H](CCN5CCOCC5)CSc5ccccc5)c(S(=O)(=O)C(F)(F)F)c4)cc3)CC2)C1 [Navitoclax] (partner 0.5 µM)
Method in brief: as §1

Ruboxistaurin + OSI-027 = compound: CN(C)C[C@@H]1CCn2cc(c3ccccc32)C2=C(C(=O)NC2=O)c2cn(c3ccccc23)CCO1 [Ruboxistaurin] + COc1cccc2cc(-c3nc([C@H]4CC[C@H](C(=O)O)CC4)n4ncnc(N)c34)[nH]c12 [OSI-027] (partner 0.5 µM)
Method in brief: as §1

[3] = compound: CN(C)C[C@@H]1CCn2cc(c3ccccc32)C2=C(C(=O)NC2=O)c2cn(c3ccccc23)CCO1 [Ruboxistaurin] + COc1cc2c(Oc3ccc(NC(=O)C4(C(=O)Nc5ccc(F)cc5)CC4)cc3F)ccnc2cc1OCCCN1CCOCC1 [Foretinib] (partner 0.25 µM)
Method in brief: as §1

[4] = compound: CN(C)C[C@@H]1CCn2cc(c3ccccc32)C2=C(C(=O)NC2=O)c2cn(c3ccccc23)CCO1 [Ruboxistaurin] + Nc1nc2[nH]cc(CCc3ccc(C(=O)N[C@@H](CCC(=O)O)C(=O)O)cc3)c2c(=O)[nH]1 [Pemetrexed] (partner 0.2 µM)
Method in brief: as §1

Cell Line	relative viability ([1]; first compound 0.08 µM)	relative viability ([1]; first compound 0.8 µM)	relative viability ([1]; first compound 2.53 µM)	relative viability ([1]; first compound 8 µM)	relative viability ([2]; first compound 0.08 µM)	relative viability ([2]; first compound 0.8 µM)	relative viability ([2]; first compound 2.53 µM)	relative viability ([2]; first compound 8 µM)	relative viability (Ruboxistaurin + OSI-027; first compound 0.08 µM)	relative viability (Ruboxistaurin + OSI-027; first compound 0.8 µM)	relative viability (Ruboxistaurin + OSI-027; first compound 2.53 µM)	relative viability (Ruboxistaurin + OSI-027; first compound 8 µM)	relative viability ([3]; first compound 0.08 µM)	relative viability ([3]; first compound 0.8 µM)	relative viability ([3]; first compound 2.53 µM)	relative viability ([3]; first compound 8 µM)	relative viability ([4]; first compound 0.08 µM)	relative viability ([4]; first compound 0.8 µM)	relative viability ([4]; first compound 2.53 µM)	relative viability ([4]; first compound 8 µM)
NCI-H647	0.199	0.272	0.369	0.172	1.23	1	1.17	1.2	0.754	0.532	0.432	0.42	1.27	0.832	1.19	1.32	0.173	0.222	0.196	0.161
NCI-H838	0.28	0.246	0.287	0.292	1.38	1.05	1.3	0.979	0.4	0.33	0.301	0.313	1.13	0.923	1.19	0.998	0.248	0.222	0.222	0.225
NCI-H1355	0.529	0.485	0.484	0.38	1.09	0.853	0.897	0.813	0.444	0.322	0.382	0.297	1.02	0.862	1.02	0.82	1.08	1	1.02	1.02
NCI-H1395	0.774	0.709	0.79	0.7	1.12	1.03	1.2	1.06	0.653	0.647	0.662	0.597	0.993	0.904	1.02	0.911	1.04	0.768	0.917	0.782
NCI-H1437	0.434	0.365	0.378	0.417	1.11	1.05	1.15	1.11	0.985	0.793	0.835	0.804	1.29	1.21	1.37	1.38	0.309	0.299	0.315	0.313
NCI-H1650	0.435	0.301	0.433	0.3	1.09	1.2	1.34	1.2	0.711	0.408	0.614	0.376	1.66	1.01	1.31	1.09	0.425	0.362	0.373	0.454
NCI-H1651	0.922	0.639	0.8	0.521	1.08	0.827	1.05	1.11	0.779	0.611	0.653	0.566	1.04	0.772	0.794	0.841	0.612	0.586	0.585	0.528
NCI-H1666	0.653	0.571	0.582	0.503	1.12	0.679	1.1	0.931	0.885	0.785	0.929	0.759	0.986	0.919	0.894	0.871	0.85	0.825	0.747	0.808
